The source of these data is article PMC9556824, “Design, synthesis and computational study of new benzofuran hybrids as dual PI3K/VEGFR2 inhibitors targeting cancer” (Scientific Reports, 2022).

The test system of data set [1] is mammary gland breast cancer (MCF-7). As to the kind of experiment: Antitumor screening using MTT assay. Conditions: Homo sapiens.
Text: (§3) Hepatocellular carcinoma (HePG2), mammary gland breast cancer (MCF-7), epithelioid carcinoma cervix cancer (Hela), and human prostate cancer were included on the panel (PC3). […] The cell lines were obtained from the American Type Culture Collection (ATCC) through VACSERA, a Cairo-based holding firm for biological goods and vaccines.
(§4) The panel consisted of hepatocellular carcinoma (HePG2), mammary gland breast cancer (MCF-7), epithelioid carcinoma cervix cancer (Hela) and human prostate cancer (PC3). Human lung fibroblast (WI38) was used to assay the cytotoxicity effect on normal cell. The cell lines were obtained from ATCC via Holding company for biological products and vaccines (VACSERA), Cairo, Egypt. The cytotoxic activity was defined as the concentration of the compound that causes 50% growth inhibition compared with the growth of untreated cells.
Data set [2] deals with HePG2, MCF-7, Hela, PC3 cell lines. As to the kind of experiment: Antitumor screening using MTT assay, statements across several cell lines. It counts as cell-based, human. As to conditions: Homo sapiens, PC-3; read-out: IC50 range against HePG and PC3 cell lines.
Data set [3] has as its system human prostate cancer (PC3). As to the kind of experiment: Antitumor screening using MTT assay. Conditions: Homo sapiens.
Text: as §3, §4
Data set [4] relates to Hepatocellular carcinoma (HePG2). The data set is described as follows: Antitumor screening using MTT assay. Conditions: Homo sapiens. It is filed as cell-based, human.
Data set [5] concerns the target human PI3Kα (Homo sapiens, UniProt P42336). The data set is described as follows: Human PI3Kα enzyme inhibition assay (ELISA).
Description: (§5) PI3Kα and VEGFR-2 activity were verified by enzyme-linked immunosorbent assay (ELISA) assay technique. […] Then, the mean absorbance of each group of standard and tested compounds was determined. The standard curve was drawn on log–log paper with the absorbance on the Y-axis and the standard concentration on the X-axis.
Data set [6] can be described thus: In vitro cytotoxicity against human normal cell line (MTT). As to conditions: human, WI38, read-out: Average of Relative viability of cells (%). It is filed as cell-based. The text has this: (§1) The anticancer agent's selectivity for cancer cells is a critical consideration for any researcher, as it can decrease the molecule's adverse effects on normal human cells.

Data set [7] has as its system human lung fibroblast (WI38). Described as above. As to conditions: Homo sapiens, WI-38, human normal cell line WI38; mean ± SD, n = 3. It counts as cell-based.
Text: as §1

Data set [8] relates to Hela cells. As to the kind of experiment: Cell cycle arrest analysis. It counts as cell-based, human. As to the method: So, compound 8 was assessed its activity on cell cycle distribution and induction of apoptosis in different phases of Hela cells.
(§2) Annexin V-FITC and PI apoptosis kit were used to detect apoptosis (eBioscience™, San Diego, CA, USA). On a six well plate, Mcf cells were plated at a density of 600,000 cells/ml. The cells were treated with compound 8 at […] after 24 h of incubation. The solvent control consisted of cells developed in medium containing an equivalent volume of DMSO. In accordance with the instructions supplied by the Annexin V-FITC and PI apoptosis kit, the cells were stained with an Annexin V-FITC conjugate and propidium iodide (PI) after 24 h. The percentage of apoptotic, necrotic, and alive cells was then calculated. By using a flow cytometer (NovoCyte, ACEA Biosciences Inc, San Diego, CA, US) and the NovoExpress 1.3.0 software (ACEA Biosciences Inc, San Diego, CA, US), the cells' released fluorescence was examined. Each point on the population plot ("dot plot") corresponds to a single event with a particular fluorescence signal in relation to the axes: Annexin V-FITC green fluorescence.
Researcher : Dr.Omar El-Khouly email : dr.kholy93@gmail.com mob. 01278084495
Assay : Cell Cycle Analysis
Kit used : ab139418_Propidium Iodide Flow Cytometry Kit/BD
Assay samples : Cell culture
code IC50 %G0-G1 %S %G2/M %Pre-G1 Comment
(also on this page, place not known: 0 20 40 60 % OE -G12 /Hela Cont. Hela DNA content %G0-G1 %S %G2/M %Pre-G1)
(1 picture or pasted object on this page, not shown here)

Data set [9] concerns Hela cells. The data set is described as follows: Detection of apoptosis (Annexin V-FITC/PI). It is filed as cell-based, human. As for the experimental part: In Hela cells, compound 8 induced an early apoptotic effect with 1.79% at 24 h. Also, the enhanced late apoptotic induction with 14.11% by 83-fold compared to the Hela control cell (0.17%). On other hand, necrotic effect in Hela at 24 h was induced by compounds 8 with 8.81% compared to the control cells (1.15%).
as §2

Data set [10] deals with epithelioid carcinoma cervix cancer (Hela). As to the kind of experiment: Antitumor screening using MTT assay. As to conditions: Homo sapiens, HeLa.
Text: as §3, §4
Data set [11] deals with human VEGFR-2 (Homo sapiens, UniProt P35968). As to the kind of experiment: Human VEGFR-2 enzyme inhibition assay (ELISA).
Description: as §5
Data set [12] concerns MCF-7. Details: method as in PMID 25086915. Conditions: read-out: IC50 against MCF-7; cited from earlier work.
In data set [13] the test system is Hela. Details: method as in PMID 25086915. Conditions: read-out: IC50 against Hela; cited from earlier work.
The subject of data set [14] is VEGFR-2. As to conditions: read-out: IC50 against VEGFR-2; cited from earlier work.
The mark [15] stands for this setting: MCF7, read-out: Average of Relative viability of cells (%).
[16] abbreviates: read-out: Average of Relative viability of cells (%).

“And” between values parts separate entries of the source, which are not always exact repeats. Equal entries are not always repeated. Where two headings read alike, the source gives them in different places.

Chain of human PI3Kα (P42336 whole entry): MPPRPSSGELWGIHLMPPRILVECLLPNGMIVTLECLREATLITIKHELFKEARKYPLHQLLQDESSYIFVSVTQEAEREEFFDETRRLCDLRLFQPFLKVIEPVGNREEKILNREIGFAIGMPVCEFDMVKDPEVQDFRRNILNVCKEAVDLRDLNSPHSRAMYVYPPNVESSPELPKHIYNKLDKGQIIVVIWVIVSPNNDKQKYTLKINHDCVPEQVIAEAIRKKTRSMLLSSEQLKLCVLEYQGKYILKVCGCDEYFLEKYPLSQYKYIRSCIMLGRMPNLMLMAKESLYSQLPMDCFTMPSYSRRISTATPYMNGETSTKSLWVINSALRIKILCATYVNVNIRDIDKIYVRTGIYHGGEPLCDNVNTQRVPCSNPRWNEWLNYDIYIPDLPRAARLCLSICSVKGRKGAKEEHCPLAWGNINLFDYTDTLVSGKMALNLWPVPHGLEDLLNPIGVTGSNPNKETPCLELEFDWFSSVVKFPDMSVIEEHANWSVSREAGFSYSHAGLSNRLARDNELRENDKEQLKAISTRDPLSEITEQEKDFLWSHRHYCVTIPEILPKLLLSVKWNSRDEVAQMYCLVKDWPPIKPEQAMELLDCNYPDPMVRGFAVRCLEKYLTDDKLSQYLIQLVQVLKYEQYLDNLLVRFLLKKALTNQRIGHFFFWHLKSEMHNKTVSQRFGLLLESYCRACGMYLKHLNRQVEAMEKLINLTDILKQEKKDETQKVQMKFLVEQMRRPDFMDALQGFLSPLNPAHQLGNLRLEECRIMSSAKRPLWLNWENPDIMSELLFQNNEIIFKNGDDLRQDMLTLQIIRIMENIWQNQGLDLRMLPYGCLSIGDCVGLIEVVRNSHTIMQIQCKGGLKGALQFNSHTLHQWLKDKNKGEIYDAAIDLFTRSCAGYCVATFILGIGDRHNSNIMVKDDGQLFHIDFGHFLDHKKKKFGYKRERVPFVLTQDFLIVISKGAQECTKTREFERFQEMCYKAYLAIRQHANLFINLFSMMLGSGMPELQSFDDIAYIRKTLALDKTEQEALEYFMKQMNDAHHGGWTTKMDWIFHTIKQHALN
Chain of human PI3Kα (P27986 whole entry partner): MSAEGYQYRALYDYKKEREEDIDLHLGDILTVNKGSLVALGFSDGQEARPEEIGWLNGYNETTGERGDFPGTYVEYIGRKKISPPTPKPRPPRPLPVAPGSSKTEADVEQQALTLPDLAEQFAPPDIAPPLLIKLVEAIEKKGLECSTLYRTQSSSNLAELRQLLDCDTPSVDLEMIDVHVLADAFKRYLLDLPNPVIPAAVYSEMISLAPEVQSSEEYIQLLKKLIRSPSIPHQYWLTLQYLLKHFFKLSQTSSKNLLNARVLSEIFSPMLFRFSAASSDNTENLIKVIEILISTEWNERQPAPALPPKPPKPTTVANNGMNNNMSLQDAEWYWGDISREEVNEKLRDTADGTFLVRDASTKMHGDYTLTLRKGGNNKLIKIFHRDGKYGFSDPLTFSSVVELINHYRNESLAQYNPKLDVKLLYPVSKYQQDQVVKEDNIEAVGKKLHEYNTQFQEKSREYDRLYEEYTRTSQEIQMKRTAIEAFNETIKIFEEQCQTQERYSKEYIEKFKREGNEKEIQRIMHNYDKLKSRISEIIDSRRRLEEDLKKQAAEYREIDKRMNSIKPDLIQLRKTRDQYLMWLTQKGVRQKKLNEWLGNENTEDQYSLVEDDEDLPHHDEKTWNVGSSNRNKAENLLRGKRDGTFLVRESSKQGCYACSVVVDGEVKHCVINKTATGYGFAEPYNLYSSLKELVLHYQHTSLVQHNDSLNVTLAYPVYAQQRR
Chain of human VEGFR-2 (P35968 20-1356): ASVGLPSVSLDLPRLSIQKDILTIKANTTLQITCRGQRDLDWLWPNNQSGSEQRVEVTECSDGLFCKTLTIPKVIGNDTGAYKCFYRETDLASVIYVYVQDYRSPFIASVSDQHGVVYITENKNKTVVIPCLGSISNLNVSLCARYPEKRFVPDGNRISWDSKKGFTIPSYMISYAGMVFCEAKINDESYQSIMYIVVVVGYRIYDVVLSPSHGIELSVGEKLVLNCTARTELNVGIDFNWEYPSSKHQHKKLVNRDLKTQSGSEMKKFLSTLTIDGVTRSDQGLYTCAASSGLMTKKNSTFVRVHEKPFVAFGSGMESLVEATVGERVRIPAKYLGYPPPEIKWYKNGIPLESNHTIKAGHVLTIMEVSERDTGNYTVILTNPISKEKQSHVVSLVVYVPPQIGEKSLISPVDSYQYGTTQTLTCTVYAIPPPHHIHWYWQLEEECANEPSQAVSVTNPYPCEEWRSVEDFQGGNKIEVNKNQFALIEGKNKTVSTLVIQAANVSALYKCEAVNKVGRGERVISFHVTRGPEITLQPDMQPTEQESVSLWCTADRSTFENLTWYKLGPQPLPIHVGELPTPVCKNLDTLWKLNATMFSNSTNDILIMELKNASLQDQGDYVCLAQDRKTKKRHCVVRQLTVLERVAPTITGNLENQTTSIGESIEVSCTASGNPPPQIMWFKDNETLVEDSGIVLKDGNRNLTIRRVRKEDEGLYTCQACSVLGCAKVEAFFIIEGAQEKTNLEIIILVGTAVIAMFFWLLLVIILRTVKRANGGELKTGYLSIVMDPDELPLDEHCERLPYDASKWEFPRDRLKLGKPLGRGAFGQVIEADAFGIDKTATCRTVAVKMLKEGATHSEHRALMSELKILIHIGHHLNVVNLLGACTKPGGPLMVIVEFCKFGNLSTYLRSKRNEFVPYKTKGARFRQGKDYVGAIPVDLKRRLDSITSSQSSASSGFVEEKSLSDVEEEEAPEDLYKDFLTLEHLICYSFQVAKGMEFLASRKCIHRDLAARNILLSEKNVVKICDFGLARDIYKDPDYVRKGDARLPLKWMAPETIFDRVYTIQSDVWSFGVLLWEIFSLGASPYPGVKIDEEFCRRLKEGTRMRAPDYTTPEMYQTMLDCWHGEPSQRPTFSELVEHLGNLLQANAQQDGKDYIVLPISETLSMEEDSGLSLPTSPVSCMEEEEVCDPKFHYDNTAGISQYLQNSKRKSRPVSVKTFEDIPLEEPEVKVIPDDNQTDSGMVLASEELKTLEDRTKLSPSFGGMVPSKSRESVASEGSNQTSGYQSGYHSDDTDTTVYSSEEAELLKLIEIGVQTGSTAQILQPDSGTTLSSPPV

With `C/C(=N\NC(=S)Nc1ccc(Cl)cc1)c1cc2ccccc2o1` [Compound 8, (E)-2-(1-(benzofuran-2-yl)ethylidene)-N-(4-chlorophenyl)hydrazine-1-carbothioamide], the melting point fell in the range of 207 to 209 °C. In data set [1] (setting [15]), the viability at 1.56 µM is 99.1%, the viability at 3.125 µM stood at 79.8%, the viability at 6.25 µM worked out at 65.7% and the viability at 12.5 µM was found to be 42.9%. Besides, in data set [1] (setting [15]), the viability at 25 µM amounted to 28.3%, the viability at 50 µM worked out at 21.2% and the viability at 100 µM turned out to be 13.7%. In addition, the IC50 in data set [1] (MCF7, read-out: In-vitro cytotoxicity IC50 (µM) MCF-7) came to 11.6 ± 0.9 µM. Further, the IC50 in [2] lay in the range of 11 to 17 µM. Besides, in data set [3] (setting [16]), the viability at 1.56 µM amounted to 100%, the viability at 3.125 µM is 93.7%, the viability at 6.25 µM amounted to 72.9% and the viability at 12.5 µM was determined as 51.6%. In data set [3] (setting [16]), the viability at 25 µM is 39.2%, the viability at 50 µM came to 27.1% and the viability at 100 µM amounted to 19.3%. Further, in data set [3] (read-out: In-vitro cytotoxicity IC50 (µM) PC3), the half-maximal inhibitory concentration (IC50) worked out at 17.5 ± 1.3 µM. Further, the viability at 1.56 µM in data set [4] (Conc. 1.56 µM, read-out: Average of Relative viability of cells (%)) was found to be 99.5%. In data set [4] (Conc. 3.125 µM, read-out: Average of Relative viability of cells (%)), the viability at 3.125 µM was found to be 81.4%. In addition, the viability at 6.25 µM in data set [4] (Conc. 6.25 µM, read-out: Average of Relative viability of cells (%)) worked out at 67.3%. Besides, the viability at 12.5 µM in [4] (Conc. 12.5 µM, read-out: Average of Relative viability of cells (%)) came out at 24.9%. In addition, the viability at 25 µM in [4] (Conc. 25 µM, read-out: Average of Relative viability of cells (%)) amounted to 29.1%. Besides, in [4] (Conc. 50 µM, read-out: Average of Relative viability of cells (%)), the viability at 50 µM is 20.8%. In data set [4] (Conc. 100 µM, read-out: Average of Relative viability of cells (%)), the viability at 100 µM was 13.2%. Besides, in [4] (mean ± SD, n = 3, read-out: In-vitro cytotoxicity IC50 (µM) HePG2), the IC50 was found to be 9.73 ± 0.7 µM. In [5] (PI3K-α IC50 ng/ml, supplement lab report), this molecule showed an IC50 of 6.43 nM. In data set [5] (PI3Kα enzymatic IC50 (nM), mean of triplicate), inhibition was half-maximal at 2.21 ± 0.11 nM (IC50). Besides, in [5] (conc 0.1 (unit not given)), the PI3K-α %inh is 22.1%. In data set [5] (conc 1 (unit not given)), this molecule yielded a PI3K-α %inh of 42.7%. Besides, in data set [5] (conc 10 (unit not given)), the PI3K-α %inh is reported as 67%. The molecule further had a PI3K-α %inh in [5] (conc 100 (unit not given)) of 80.7%. Also, the viability at 3.125 µM in data set [6] (WI38 human lung fibroblast cells (normal cell line), Conc. 3.125 µM) stood at 100%. Also, in data set [6] (WI38 human lung fibroblast cells (normal cell line), Conc. 6.25 µM), the viability at 6.25 µM was found to be 89.3%. The viability at 12.5 µM in data set [6] (WI38 human lung fibroblast cells (normal cell line), Conc. 12.5 µM) was 75.6%. Further, the viability at 25 µM in data set [6] (WI38 human lung fibroblast cells (normal cell line), Conc. 25 µM) worked out at 62.7%. In addition, the viability at 50 µM in data set [6] (WI38 human lung fibroblast cells (normal cell line), Conc. 50 µM) is 48.2%. The viability at 100 µM in data set [6] (WI38 human lung fibroblast cells (normal cell line), Conc. 100 µM) came to 36.4%. In addition, the viability at 1.56 µM in data set [6] (WI38 normal lung fibroblast cells, Conc. 1.56 µM) was found to be 100%. For the same molecule, the IC50 in [7] is 48.2 ± 2.8 µM. In data set [8], the “Cell cycle analysis comment” value is “Pre-G1 apoptosis and cell growth arrest at G1/S phase”; the “Cell cycle distribution (%) %G0–G1” value came to 47.06%; the “Cell cycle distribution (%) %G2/M” value was 1.71%. In addition, in data set [8] (24 h), the “Cell cycle distribution (%) %S” value was 51.23%. Also, the “Cell cycle distribution (%) %Pre-G1” value in data set [8] (after 48 h exposure) was found to be 24.71%. The “Cell cycle analysis comment” value in [8] (listed as OE-G12) is reported as “cell growth arrest@G1/S phase”. Besides, in [9], the late apoptotic induction stood at 14.11%. In data set [9] (24 h), the early apoptotic effect was 1.79% and the necrotic effect worked out at 8.81%. Besides, in data set [9] (control 0.17%), the “late apoptotic induction, fold compared to Hela control cell” value is reported as 83 fold. In [10] (setting [16]), the viability at 1.56 µM was 88.6%, the viability at 3.125 µM was 76.1%, the viability at 6.25 µM is 53.7% and the viability at 12.5 µM was found to be 32.8%. For the same molecule, in [10] (setting [16]), the viability at 25 µM was 24.5%, the viability at 50 µM came out at 16% and the viability at 100 µM was 8.2%. In addition, the IC50 in [10] (read-out: In-vitro cytotoxicity IC50 (µM) Hela) came out at 7.94 ± 0.5 µM. Further, half-maximal inhibition in data set [11] (VEGFR2 IC50 ng/ml, supplement lab report) (IC50) was put at 250 nM. Moreover, the IC50 in [11] (VEGFR-2 enzymatic IC50 (nM), mean of triplicate) was 68 nM and 86 nM. In [11] (conc 0.01 (unit not given)), this molecule came in with a vegfr2 %inh of 28.7%. In addition, in data set [11] (conc 0.1 (unit not given)), the vegfr2 %inh worked out at 52.7%. In data set [11] (conc 1 (unit not given)), this molecule gave a vegfr2 %inh of 75.3%. The same molecule returned a vegfr2 %inh in data set [11] (conc 10 (unit not given)) of 90.4%.

For `O=C(CN1CCN(c2nn3c(-c4ccccc4)nnc3c3ccccc23)CC1)Nc1ccc(F)cc1` [Compound VII], the IC50 is 3.4 µM in data set [12] and 2 µM in [13].

On to `COc1c(C(=O)/C=C/c2ccc([N+](=O)[O-])cc2)c(O)cc2occc12` [Compound V], for which the 50% inhibitory concentration (IC50) in data set [14] is 0.001 µM.
